Six molecules from DBAASP can be followed below.

What all share (assay): ≥ marks a high value that may be exact or a test limit, other limits are often not marked, values filed in µg/mL are converted to µM
Test [1] has as its system Escherichia coli ATCC 25922.
In test [2] the test system is Staphylococcus aureus ATCC 6538P.
Test [3] has as its system Pachysolen tannophilus.
Test [4] has as its system Trichoderma harzianum.
Test [5] has as its system Candida albicans.
Test [6] concerns Aspergillus niger.
For test [7], the system named is Micrococcus luteus.
Test [8] has as its system Kluyveromyces marxianus.
In test [9] the test system is Staphylococcus aureus ATCC 49476.
Test [10] concerns Pseudomonas aeruginosa ATCC 27853.
For test [11], the system named is Staphylococcus aureus MR.
The test system of test [12] is Citrobacter sp.
Test [13] has as its system Escherichia coli.
The subject of test [14] is Pseudomonas sp.
Test [15] concerns Pseudomonas aeruginosa.
The subject of test [16] is Bacillus subtilis.
The subject of test [17] is Klebsiella pneumoniae.
The subject of test [18] is Staphylococcus aureus ATCC 25923.
Test [19] concerns Staphylococcus aureus.
Test [20] has as its system Acinetobacter sp.
The test system of test [21] is Staphylococcus aureus MW2.
For test [22], the system named is Klebsiella aerogenes ATCC 13048.
Test [23] has as its system Candida albicans ATCC 10231.
Test [24] concerns Staphylococcus aureus ATCC 29231.
Test [25] has as its system Acinetobacter baumannii ATCC 7978.
Test [26] concerns Enterococcus faecium E007.
Test [27] relates to Pseudomonas aeruginosa PA14.
Test [28] concerns Saccharomyces cerevisiae AS2.430.

Molecules are shown by their SMILES. In brackets after ≈: the same amount, converted by molar mass.

For orientation: MIC means the least concentration at which growth counts as inhibited. The low end stands for a more susceptible organism, the high end for a less susceptible organism. Consider `CC[C@H](C)[C@H](NC(=O)[C@H](CC(C)C)NC(=O)[C@H](CCCCN)NC(=O)[C@@H](N)CC(=O)O)C(=O)NCC(=O)N[C@@H](CO)C(=O)N[C@H]1CSSC[C@@H]2NC(=O)[C@H](Cc3cnc[nH]3)NC(=O)CNC(=O)CNC(=O)[C@H](CCCCN)NC(=O)[C@H](Cc3ccc(O)cc3)NC(=O)CNC(=O)[C@H](CCCN=C(N)N)NC(=O)[C@H](CCCN=C(N)N)NC(=O)[C@H](CCCCN)NC(=O)[C@@H]3CSSC[C@@H](C(=O)N[C@@H](CCC(=O)O)C(=O)N[C@@H](CCC(=O)O)C(=O)O)NC(=O)[C@H](Cc4c[nH]c5ccccc45)NC(=O)[C@H](CSSC[C@H](NC(=O)[C@H](CC(=O)O)NC(=O)[C@H](CO)NC(=O)[C@H]([C@@H](C)O)NC(=O)[C@H](Cc4ccc(O)cc4)NC(=O)[C@H](CC(N)=O)NC(=O)[C@H]([C@@H](C)O)NC(=O)[C@H](C)NC(=O)CNC(=O)[C@H](Cc4c[nH]c5ccccc45)NC(=O)[C@H](C(C)C)NC1=O)C(=O)N[C@@H](CC(N)=O)C(=O)N[C@@H](C)C(=O)N[C@@H](CCC(=O)O)C(=O)N3)NC(=O)[C@H](CC(N)=O)NC(=O)[C@H](C(C)C)NC(=O)[C@H](CC(N)=O)NC(=O)[C@H](Cc1c[nH]c3ccccc13)NC(=O)[C@H](Cc1ccccc1)NC(=O)[C@H](CO)NC(=O)CNC2=O` [DKLIGSCVWGATNYTSDCNAECKRRGYKGGHCGSFWNVNCWCEE], for which the MIC came out at 1 µM (≈ 4.94 µg/mL) in test [1]; 8 µM (≈ 39.5 µg/mL) in test [2]; 2.9 µM (≈ 14.3 µg/mL) in test [3]; 2.9 µM (≈ 14.3 µg/mL) in test [4]; 2.9 µM (≈ 14.3 µg/mL) in [5]; 2.9 µM (≈ 14.3 µg/mL) in test [6]. Besides, the minimum inhibitory concentration (MIC) is 1.9 µM (≈ 9.39 µg/mL) in [7] and 2.9 µM (≈ 14.3 µg/mL) in test [8].
For `CC[C@H](C)[C@H](NC(=O)[C@H](C)NC(=O)[C@H](CCCCN)NC(=O)CNC(=O)[C@H](C)NC(=O)[C@H](CO)NC(=O)[C@H](Cc1ccccc1)NC(=O)[C@H](CC(C)C)NC(=O)CNC(=O)CNC(=O)[C@@H](NC(=O)[C@@H](NC(=O)[C@H](Cc1cnc[nH]1)NC(=O)[C@H](Cc1cnc[nH]1)NC(=O)[C@@H](NC(=O)[C@@H](N)Cc1ccccc1)[C@@H](C)CC)[C@@H](C)CC)[C@@H](C)CC)C(=O)N[C@@H](Cc1cnc[nH]1)C(=O)N[C@@H](CCCN=C(N)N)C(=O)N[C@@H](CC(C)C)C(=O)N[C@H](C(=O)N[C@@H](CCCN=C(N)N)C(=O)O)[C@@H](C)CC` [FIHHIIGGLFSAGKAIHRLIR], the minimal inhibitory concentration (MIC) is 27.2 µM (≈ 64 µg/mL) in test [9], 54.3 µM (≈ 128 µg/mL) in test [5], greater than 217 µM in test [10] and no less than 109 µM in [11].
For `CC[C@H](C)[C@H](NC(=O)[C@H](CC(C)C)NC(=O)[C@H](CCCN=C(N)N)NC(=O)[C@H](CC(C)C)NC(=O)[C@H](CCCCN)NC(=O)CN)C(=O)N[C@@H](CCCCN)C(=O)N[C@@H](CCCCN)C(=O)N[C@@H](CC(C)C)C(=O)N[C@@H](Cc1c[nH]c2ccccc12)C(=O)N[C@H](C(=O)N[C@@H](CCCCN)C(=O)N[C@@H](CCCCN)C(=O)N[C@@H](Cc1c[nH]c2ccccc12)C(=O)N[C@@H](CCCCN)C(=O)N[C@@H](CCCCN)C(=O)N[C@@H](CCCCN)C(=O)NCC(=O)N[C@@H](Cc1c[nH]c2ccccc12)C(=O)N[C@@H](CCCCN)C(=O)N[C@@H](C)C(N)=O)C(C)C` [GKLRLIKKLWVKKWKKKGWKA], the MIC in [12], in test [13], in test [1], in test [14], in [15] and in test [16] was 2 µM (≈ 5.24 µg/mL) throughout. Further, the MIC in test [10] turned out to be 2 µM (≈ 5.24 µg/mL); in test [17], 2.83 µM (≈ 7.42 µg/mL); in test [18] it was 2 µM (≈ 5.24 µg/mL); in [19] it was 4 µM (≈ 10.5 µg/mL); in test [20], 2 µM (≈ 5.24 µg/mL).
As to `CC[C@H](C)[C@H](NC(=O)[C@H](CCCCN)NC(=O)[C@H](CCCCN)NC(=O)[C@H](CC(C)C)NC(=O)[C@@H](NC(=O)[C@H](CCCCN)NC(=O)[C@H](Cc1c[nH]c2ccccc12)NC(=O)[C@@H](N)CC(C)C)[C@@H](C)CC)C(=O)N[C@@H](Cc1c[nH]c2ccccc12)C(=O)N[C@@H](CCCN=C(N)N)C(=O)N[C@H](C(=O)N[C@@H](CC(C)C)C(=O)N[C@@H](Cc1c[nH]c2ccccc12)C(=O)N[C@@H](CC(N)=O)C(=O)N[C@@H](Cc1c[nH]c2ccccc12)C(=O)N[C@@H](CCCN=C(N)N)C(=O)O)C(C)C` [LWKILKKIWRVLWNWR], the MIC in [21] was 28.6 µM (≈ 64 µg/mL); in test [22] it was no less than 57.2 µM; in [23] it was 28.6 µM (≈ 64 µg/mL); in test [24], 14.3 µM (≈ 32 µg/mL); in test [25], no less than 57.2 µM.
For the molecule `CC[C@H](C)[C@H](NC(=O)[C@H](CCCCN)NC(=O)[C@H](CCCCN)NC(=O)[C@H](Cc1c[nH]c2ccccc12)NC(=O)[C@@H](NC(=O)[C@H](CCCCN)NC(=O)[C@H](Cc1c[nH]c2ccccc12)NC(=O)[C@@H](N)CC(C)C)[C@@H](C)CC)C(=O)N[C@@H](Cc1c[nH]c2ccccc12)C(=O)N[C@@H](CCCN=C(N)N)C(=O)N[C@H](C(=O)NCC(=O)N[C@@H](Cc1c[nH]c2ccccc12)C(=O)N[C@@H](CC(N)=O)C(=O)N[C@@H](Cc1c[nH]c2ccccc12)C(=O)N[C@@H](CCCN=C(N)N)C(=O)O)C(C)C` [LWKIWKKIWRVGWNWR], the MIC was no less than 56.7 µM in test [26]; 14.2 µM (≈ 32 µg/mL) in test [27]; 28.4 µM (≈ 64 µg/mL) in [22]; 14.2 µM (≈ 32 µg/mL) in test [23]; 7.09 µM (≈ 16 µg/mL) in [24].
For the molecule `CC(C)C[C@H](NC(=O)[C@H](CO)NC(=O)CNC(=O)[C@H](CCC(=O)O)NC(=O)[C@H](CC(C)C)NC(=O)[C@H](CCC(=O)O)NC(=O)[C@H](C)NC(=O)[C@H](CCC(N)=O)NC(=O)[C@H](CO)NC(=O)[C@H](CCC(=O)O)NC(=O)[C@H](CCC(=O)O)NC(=O)[C@@H](N)Cc1ccc(O)cc1)C(=O)N[C@@H](CCCCN)C(=O)O` [YEESQAELEGSLK], the minimum inhibitory concentration (MIC) was 211 µM (≈ 313 µg/mL) in test [1], no less than 6750 µM in test [28] and 211 µM (≈ 313 µg/mL) in [18].
